Laboratory results reported in US8299237B2, “Nucleic acid sequences comprising NF-κB binding site within O(6)-methylguanine-DNA-methyltransferase (MGMT) promoter region and uses thereof for the treatment of cancer and immune-related disorders” (Hadasit Medical Research Services & Development Ltd., priority 2007, dated 2012).
Entries after “also recorded” stand apart in the source; their conditions may differ.

Tests used:
T98MG gliomas cell line [1] = assay type: cell-based, human; details: corresponding concentrations, 48 hours
Protocol: (§1) T98MG glioma cell line cells were treated with increasing doses of the decoy ODN's of the invention. Double stranded ODNs (30mers), corresponding to MGMT-κB1 binding site (as also denoted by SEQ. ID. NO. 1), and control ODNs were purchased from IDT. Each strand of ODN was thirty-mers and contained six LNA nucleotides. The following ODNs were used: MGMT-kB1forward: 5′---+T+AATGGGG+ACTTTAC GGG+[…]+A+T---3′ (as also denoted by SEQ. ID. NO. 40) with or without the 5′ end labeled with carboxyfluorescein-5-succimidyl ester (FAM). The MGMT-kB1 reverse ODN: 5′---+A+TTCTGTA+[…]+[…]+T+A---3′ as also denoted by SEQ ID NO. 41). Control forward: 5′---+T+AG TGT CG+A CTT CAC TCT+ACT TGA CAG A+A+T---3′ (as also denoted by SEQ ID NO. 42), control reverse: 5′---+A+TT CTG TC+A AGT AGA GTG+AAG TCG ACA C+T+A---3′ as also denoted by SEQ ID NO. 43). It should be noted that (+designated as nucleotide containing an LNA modification).
The viability of the cells was tested 24-48 hrs later by CellTiter-Blue assay (Promega®). The assay was carried out according to the supplier's instructions. Briefly, the assay is based on the ability of living cells to convert a redox dye (resazurin) into a fluorescent end product (resorufin). Cell viability estimation is done by measuring the fluorescent intensity of resorufin (ex. 560 nm, em. 590 nm) using a fluorescent microplate reader. […]

T98MG gliomas cell line [2] = assay type: cell-based, human
Protocol: as §1
The viability of the cells was tested 24-48 hrs later by CellTiter-Blue assay (Promega®). The assay was carried out according to the supplier's instructions. Briefly, the assay is based on the ability of living cells to convert a redox dye (resazurin) into a fluorescent end product (resorufin). Cell viability estimation is done by measuring the fluorescent intensity of resorufin (ex. 560 nm, em. 590 nm) using a fluorescent microplate reader.
The inventors next tested the potential of the decoy LMODN molecules of the invention to sensitize tumor cells to alkylating agents and thereby improve their efficacy as anti-cancerous treatment. Therefore, several human cancer cell lines were treated with alkylating agents with increasing doses of MGMT-kB1-ODN followed by cell viability tests. First, the sensitivity of each cell line to several alkylating agents, mainly temozolomide (TMZ) and BCNU was calibrated. At 24 hrs following sowing, cells were exposed for two hours to increasing concentrations of the alkylating agent and viability of the cells was tested 24-48 hrs later by CellTiter-Blue assay (Promega®). To test the potential of MGMT-kB1-LMODN to sensitize tumor cells to alkylating agents in-vitro, increasing doses of LMODNs MGMT-kB1 forward and reverse as denoted by SEQ ID NO. 40 and 41, respectively), with or without the 5′ end labeled with carboxyfluorescein-5-succimidyl ester (FAM), as well as the control LMODNs (as denoted by SEQ ID NO. 42 and 43), were liposomally introduced (Lipofectamine 2000, Invitrogen) to various tumor cancer cells. Twenty four hours later, cells were treated with the different doses of alkylating agents as calibrated before.
FIG. 9 represents an example of T98MG gliomas cell line sensitized to alkylating agents in response to treatment with the LMODN's of the invention. […]

[3] = tested on: MGMT-kB1-Luc reporter construct induced by NF-κB/p65; assay: Luciferase reporter assay, MGMT-kB1-Luc co-transfected with NF-κB/p65; assay type: cell-based, human; details: for effect on luciferase activity driven by MGMT-kB1 reporter (in words): HEK293T co-transfected with MGMT-kB1 reporter and NF-κB/p65
Protocol: (§2) Transient transfections were performed in 6-well plates, using the FuGene6 transfection reagent (Roche Diagnostics GmbH, Mannheim, Germany), according to the manufacturer's instructions. U87MG, T98G, and A172 cells were transfected with pNF-κB-Luc reporter Vector (Clontech, Palo Alto, Calif.), while RG2 and U87MG were transfected with MGMT-Luc [construct p-954/+24 mL [Biswas T. et al. Oncogene 18:525-32 (1999)] kindly provided by Sankar Mitra] (1 μg/well). CMVβ-galactosidase expression vector (CMVβgal-Clonthech) was included (0.1 μg/well) in each transfection to normalize transfection efficiency. HEK293 cells were transfected with CMVβgal alone or along with one or more of the following plasmids: CMVp65, CMVΔNIκB, CMVp50, CMVcJun. CMVp65 and CMVΔNIκB plasmids were kindly provided by Prof. Yinon. Ben-Neriah (The Hebrew University, Jerusalem, Israel), CMVp50 and CMVcJun were kindly provided by Dr. Danielle Melloul (Hadassah Hebrew University Medical Center, Jerusalem, Israel).
At 24 hrs following transfection, the cells were lysed for 15 min on ice with 200 μl of luciferase lysis buffer (Promega, Madison, Wis.). Luciferase assays were carried out using a Promega assay kit and a luminometer (EG&G Berthold, Bad Wildbad, Germany). The activity was normalized to β-galactosidase activity (Promega) and plotted as the mean±s.d. of triplicates from a representative experiment.
For the cloning of the MGMT-luc constructs the reporter vector p-TA-Luc (Clontech, Palo Alto, USA) was used. The plasmid contains TATA box motif upstream to a luciferase reporter gene. A double stranded DNA corresponding to four repeats of each sequence as indicated by FIG. 8A (also denoted by SEQ ID NO. 44, 45, 46 and 47), was synthesis by syntezza LTD and ligated upstream to the TATA box.
To test the activity of these sites, several luciferase reporter genes bearing four copies of either intact or mutant sequence, of each of the two NF-κB sites (NF-κB1 and NF-κB2), were constructed as indicated in Experimental procedures. […] An inhibition of approximately 50% was observed using 100 nM ODN. Negative control using the CMVΔNIκB (ΔN)-Luc construct as well as positive control using the canonical HIV-κB-Luc reporter construct, confirmed validity of the data.
Induction of over expression of NF-κB in HEK 293T cells by transfection of a CMV-NF-κB/p65 generated a 50-fold elevation in luciferase expression driven by the Co-transfected reporter construct MGMT-kB1-Luc. […] Inhibition of approximately 90% was induced by 150 nM LMODN. […] No inhibition was detected when a mutant LMODN was introduced into the cells, indicating the specificity of MGMT-kB1-LMODN (of SEQ ID NO. 40 and 41). […] 3 (HIV-κB-Luc construct).

[4] = tested on: canonical NF-κB binding site from HIV (HIV-κB-Luc construct); assay: Luciferase reporter assay, HIV-κB-Luc construct induced by p65; assay type: cell-based, human; details: 150 nm LMODN
Protocol: as §2, with “Israel). […]” for “Israel).”
Induction of over expression of NF-κB in HEK 293T cells by transfection of a CMV-NF-κB/p65 generated a 50-fold elevation in luciferase expression driven by the Co-transfected reporter construct MGMT-kB1-Luc. […] No inhibition was detected when a mutant LMODN was introduced into the cells, indicating the specificity of MGMT-kB1-LMODN (of SEQ ID NO. 40 and 41). […]

HEK293 cells = assay: BG and BCNU treatment, crystal violet viability test in transfected HEK293; assay type: cell-based, human; details: BG 80 μM added 4-6 hrs after transfection; control and p65 transfected HEK293; BCNU 20-80 μg/ml 2 hrs
Protocol: (§3) Various glioma cell lines (A172, U87MG, and T98G) or HEK293 were transiently transfected with different plasmids as indicated above. For the BG-treated groups, BG (Benzyl Guanine, an MGMT inhibitor) was added to the cell medium 4-6 hrs after transfection at a final concentration of 80 μM and incubated with the cells for the duration of the experiment. At 24 hrs following transfection, the cells were exposed for 2 hrs to increasing concentrations of BCNU (as indicated), which is a β-chloro-nitrosourea compound used as an alkylating agent in chemotherapy. The cells were fixed 48 hrs later with 4% paraformaldehyde for 20 min at room temperature, and washed twice with PBS. A 400 μl volume of 0.5% crystal violet in dH2O was added and the cells were stained for 15 min on a vibrator at 300 rpm. The dye was aspirated, the wells rinsed with dH2O, and the plate was allowed to dry in the hood. For destaining, 400 μl of 10% acetic acid were added to each well and the cells were incubated for 15 min on a vibrator at 300 rpm. The optical density (OD590) of the de-stained solution in each well was read and recorded.
(§4) To determine whether this also results in induction of cellular resistance to alkylating agents, the sensitivity of the three glioma cell lines to increasing quantities of BCNU (5-80 μg/ml), was next compared. […]

[5] = tested on: glioma cell lines A172, U87MG and T98G; assay: BCNU crystal violet viability test in glioma cell lines; assay type: cell-based; details: BCNU 5-80 μg/ml, 2 hrs; viability 48 hrs later; p<0.001
Protocol: as §3, §4

**Q.** For “mMGMT-kB1-LMODN: mutant control LNA modified ODN; control forward SEQ ID NO. 42, control reverse SEQ ID NO. 43 (sense TAGTGTCGACTTCACTCTACTTGACAGAAT; antisense ATTCTGTCAAGTAGAGTGAAGTCGACACTA; LNA modified, positions not given here; listed as Homo sapiens) [mutant control LNA modified ODN; 43]”, which “effect on cell survival (in words)” value (T98MG gliomas cell line [1]) is on record?
**A.** The value was “no reduction in cell survival”.

**Q.** And the “additive effect with TMZ (in words)” value (T98MG gliomas cell line [2]; 2.5 mM TMZ with mutant LMODN (FIG. 9))?
**A.** The value was “no any additive effect”.

**Q.** And the “effect on luciferase activity driven by MGMT-kB1 reporter (in words)” value [3]?
**A.** The value was “No inhibition”.

**Q.** Which results are given for “MGMT-kB1-LMODN: double stranded 30-mer LNA modified decoy ODN of MGMT-κB1 site; forward SEQ ID NO. 40, reverse SEQ ID NO. 41 (sense TAATGGGGACTTTACGGGACTTTACAGAAT; antisense ATTCTGTAAAGTCCCGTAAAGTCCCCATTA; LNA modified, positions not given here; listed as Homo sapiens) [double stranded 30-mer LNA modified decoy ODN of MGMT-κB1 site; 41]”?
**A.** inhibition of p65-induced luciferase expression [4]: 57%; toxicity to cells, viability of cells treated only with the LMODN (T98MG gliomas cell line [2]): not toxic to the cells; live cells (T98MG gliomas cell line [2]; 2.5 mM TMZ with 2 nm LMODN): 22%; inhibition of luciferase activity ([3]; 150 nM LMODN, liposomal, HEK 293T, MGMT-kB1-Luc + NFκB/p65 (FIG. 8)): approximately 90%; effect on luciferase activity driven by MGMT-kB1 reporter (in words) [3]: inhibited the luciferase activity in a dose-dependent manner; inhibitory activity relative to NF-κB super repressor ΔNI-κB ([3]; LMODN at 150 nM): two fold greater

**Q.** For `Nc1nc(OCc2ccccc2)c2nc[nH]c2n1` [BG, O6-Benzylguanine], which “effect of BG on sensitivity to BCNU (in words)” value (HEK293 cells) is on record?
**A.** The value was “augmented the cell sensitivity to BCNU; also recorded: completely abrogated the p65-induced chemoresistance”.

**Q.** Which “resistance of T98G to BCNU compared with A172 and U87MG (in words)” value [5] does the source give for `O=NN(CCCl)C(=O)NCCCl` [BCNU, 1,3-bis(2-chloroethyl)-1-nitrosourea] here?
**A.** Its value is “more resistant”.
